Experiment [1] deals with breast cancer cell line (MDA-MB-231). Briefly: Cell growth inhibition and apoptosis induction, breast cancer cell line. In kind it is cell-based. To be noted: for growth inhibition and apoptosis-inducing effects: 0.05-10 μM, 0-96 hours; for growth inhibition and apoptosis-inducing effects (cell images, MTT assay, FIG. 6): compared to the untreated control, 48 hours images, 96 hours MTT. Here is the method: (§1) An embryonic kidney cell line (293T), a breast cancer cell line (MDA-MB-231), and colon cancer cell lines (HCT116 and HT29) were inoculated in a 96-well plate at a density of 3,000 cells/well, and 50 μL of a culture fluid was added thereto. The resulting mixture was cultured for an hour under 37° C./5% CO2 conditions. Each of the peptides prepared in Example 3 was added at an increasing concentration of 0.05, 1, 2, 3 and 10 μM to the well plate inoculated with each of the cell lines, and the resulting mixture was cultured for 0, 24, 48, 72 and 96 hours under 37° C./5% CO2 conditions. When the culture was completed, the cells were observed and their morphological changes were imaged using an inverted phase contrast microscope.
(Formazan colour is commonly taken as a measure of viable cells.)

Experiment [2] deals with colon cancer cell line HT29. Description: Cell growth inhibition and apoptosis induction, colon cancer cell line HT29. As to conditions: for growth inhibition and apoptosis-inducing effects: 0.05-10 μM, 0-96 hours; for growth inhibition and apoptosis-inducing effects (cell images, MTT assay, FIG. 6): compared to the untreated control, 48 hours images, 96 hours MTT. In kind it is cell-based. Here is the method: as §1

Experiment [3] concerns embryonic kidney cell line (293T). Briefly: Cell growth inhibition and apoptosis induction, embryonic kidney cell line. As to conditions: for growth inhibition and apoptosis-inducing effects: 0.05-10 μM, 0-96 hours; for growth inhibition and apoptosis-inducing effects (cell images, MTT assay, FIG. 6): compared to the untreated control, 48 hours images, 96 hours MTT. The class given is cell-based. The protocol:
as §1

Experiment [4] relates to colon cancer cell line HCT116. Description: Cell growth inhibition and apoptosis induction, colon cancer cell line HCT116. The class given is cell-based. To be noted: for growth inhibition and apoptosis-inducing effects: 0.05-10 μM, 0-96 hours; for growth inhibition and apoptosis-inducing effects (cell images, MTT assay, FIG. 6): compared to the untreated control, 48 hours images, 96 hours MTT. Here is the method:
as §1

In the next experiment the test system is breast cancer cells. Briefly: Growth inhibition and apoptosis in breast cancer cells. In kind it is cell-based. To be noted: compared with Peptide 5-2C.
Another experiment has as its system liver cancer cells. Description: Growth inhibition and apoptosis in liver cancer cells. The class given is cell-based. As to conditions: compared with Peptide 5-2C.
Another experiment has as its system leukemia cells. Briefly: Growth inhibition and apoptosis in leukemia cells. The class given is cell-based. To be noted: compared with Peptide 5-2C.
Another experiment has as its system kidney-derived cells. Briefly: Growth inhibition and apoptosis in kidney-derived cells. The class given is cell-based. As to conditions: compared with Peptide 5-2C.
The subject of a further experiment is colon cancer cells. Description: Growth inhibition and apoptosis in colon cancer cells. In kind it is cell-based. As to conditions: compared with Peptide 5-2C.
The test system of experiment [5] is liver cancer cell line (Hep3B). Description: Cell growth inhibition and apoptosis, liver cancer cell line (MTT, CCK, Crystal Violet). The class given is cell-based. As to conditions: Hep3B treated once with peptide; compared to 5-2C-treated group. The text has this:
The peptides were used to analyze effects on cell growth inhibition and apoptosis in the liver cancer cell line (Hep3B). FIGS. […] 8C and 8D graphically show the growth inhibition and apoptosis-inducing effects of the respective peptides at different concentrations. […] Therefore, it can be seen that the peptide of SEQ ID NO: 1 according to the present invention is a peptide having a sequence composed of an optimized number of amino acids to have anticancer activity.

Another experiment concerns various cells. Briefly: IC50 in various cells (MTT, FIG. 16). To be noted: compared with Peptide 5-2C. In kind it is cell-based.
The next experiment concerns cancer cells. To be noted: cell and mouse xenograft models; Grant et al. 2012; cited from earlier work.

We go through seven molecules from US10654889B2, “Peptide having anticancer activity, and pharmaceutical composition, health functional food composition and functional cosmetic composition for preventing and treating cancer comprising the same as active ingredient” (INDUSTRY-UNIVERSITY COOPERATION FOUNDATION HANYANG …, priority 2016, dated 2020).

Turning to Ac-PQRcrgdkgpdc-amide [Peptide 5-2-32C], the “growth inhibition and apoptosis-inducing effects” value in experiment [1] is “no growth inhibition and apoptosis-inducing effects at all”.
Same read-out and setting: for CRGDKGPDC [iRGD, reference compound] the value was “no growth inhibition and apoptosis-inducing effects at all”; for Ac-YPQcrgdkgpdc-amide [Peptide 5-2-31C], “no growth inhibition and apoptosis-inducing effects at all”.
Consider “Ac-NYPQRcrgdkgpdc-amide [Peptide 5-2-51C]”, for which the “growth inhibition and apoptosis-inducing effects” value in experiment [2] was “exhibited growth inhibition and apoptosis-inducing effects”; in experiment [3], “exhibited growth inhibition and apoptosis-inducing effects”; in experiment [4], “exhibited growth inhibition and apoptosis-inducing effects”; in experiment [1], “exhibited growth inhibition and apoptosis-inducing effects”. The “growth inhibition and apoptosis-inducing effects (cell images, MTT assay, FIG. 6)” value is “superior growth inhibition and apoptosis-inducing effects” in [2]; “superior growth inhibition and apoptosis-inducing effects” in experiment [3]; “superior growth inhibition and apoptosis-inducing effects” in [4]; “superior growth inhibition and apoptosis-inducing effects” in [1].
As to Ac-YPQRcrgdkgpdc-amide [Peptide 5-2-4C], the “growth inhibition and apoptosis” value in the experiment on breast cancer cells, in the experiment on liver cancer cells, in the experiment with leukemia cells, with kidney-derived cells and with colon cancer cells was “a tendency very similar to Peptide 5-2C” in each case. The “growth inhibition and apoptosis-inducing effects” value in experiment [2] was “exhibited growth inhibition and apoptosis-inducing effects”; in [3], “exhibited growth inhibition and apoptosis-inducing effects”; in experiment [4], “exhibited growth inhibition and apoptosis-inducing effects”; in experiment [1], “exhibited growth inhibition and apoptosis-inducing effects”. In addition, the “growth inhibition and apoptosis-inducing effects (cell images, MTT assay, FIG. 6)” value in experiment [2] was “superior growth inhibition and apoptosis-inducing effects”; in [3], “superior growth inhibition and apoptosis-inducing effects”; in [4] it was “superior growth inhibition and apoptosis-inducing effects”; in [1] it was “superior growth inhibition and apoptosis-inducing effects”. For the same molecule, the “change in IC50 values observed for 3 days” value in [5] is listed as “steadily decreasing over 3 days, a level of which was highly similar to that of Peptide 5-2C”. The “IC50 value at 48 hours” value in the experiment on various cells was “very similar to that of Peptide 5-2C”.
For the molecule `CCOc1ccccc1C1CC(=O)Nc2cc3c(cc21)OCO3` (centres unmarked) [FQI1, Factor Quinolinone Inhibitor 1], the “inhibition of cancer cells versus normal cells” value in the experiment with cancer cells was “successful in inhibiting only the cancer cells without exerting any influence on normal cells”.
As to “Ac-YPQRPcrgdkgpdc-amide [Peptide 5-2-52C]”, the “growth inhibition and apoptosis-inducing effects” value in experiment [2] is “exhibited growth inhibition and apoptosis-inducing effects”; in experiment [3], “exhibited growth inhibition and apoptosis-inducing effects”; in experiment [4] it was “exhibited growth inhibition and apoptosis-inducing effects”; in experiment [1], “exhibited growth inhibition and apoptosis-inducing effects”. The “growth inhibition and apoptosis-inducing effects (cell images, MTT assay, FIG. 6)” value in experiment [2] is “superior growth inhibition and apoptosis-inducing effects”; in experiment [3], “superior growth inhibition and apoptosis-inducing effects”; in experiment [4], “superior growth inhibition and apoptosis-inducing effects”; in experiment [1], “superior growth inhibition and apoptosis-inducing effects”.
